Literature values, collected in paper PMC11791199 (Scientific Reports, 2025).
Starred links: 1 amine or outer side, 2 acyl side, 3 side chain; linkers in the order of their positions; H or OH if unused. Positions of bridges follow the written chain, without caps; N, C: chain ends. Non-standard residues stand in square brackets, D forms with d. Residues, ends and D or L forms follow the SMILES beside them. *: point of attachment. Phe(3R-OH) = O=C([C@@H](N[*:1])[C@H](O[*:3])c1ccccc1)[*:2]; NMeTrp(4-OMe) = CN[C@@H](Cc1c[nH]c2cccc(OC)c12)C(=O)O; NMeaIle = CC[C@@H](C)[C@H](NC)C(=O)O; NMe2Val = CC(C)[C@@H](C(=O)*)N(C)C; NMeT = CN[C@H](C(=O)O)[C@@H](C)O; NMeL = CN[C@@H](CC(C)C)C(=O)O; NMeV = CN[C@H](C(=O)O)C(C)C

What was measured:
Details in all cases: cited from earlier work
ClpC1 = ClpC1 (Mycobacterium tuberculosis, UniProt P9WPC9)
tuberculosis = tested on: tuberculosis
ClpC1P1P2 = ClpC1P1P2 (Mycobacterium tuberculosis, UniProt P9WPC9)
ClpC1 NTD = ClpC1 NTD (Mycobacterium tuberculosis, UniProt P9WPC9)
Chain of ClpC1 NTD (P9WPC9 2-144): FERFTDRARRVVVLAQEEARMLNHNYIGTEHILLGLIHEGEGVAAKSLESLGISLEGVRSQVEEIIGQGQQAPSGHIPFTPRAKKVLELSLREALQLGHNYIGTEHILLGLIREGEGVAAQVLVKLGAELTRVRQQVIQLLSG

Chain of ClpC1P1P2 (P9WPC9 whole entry): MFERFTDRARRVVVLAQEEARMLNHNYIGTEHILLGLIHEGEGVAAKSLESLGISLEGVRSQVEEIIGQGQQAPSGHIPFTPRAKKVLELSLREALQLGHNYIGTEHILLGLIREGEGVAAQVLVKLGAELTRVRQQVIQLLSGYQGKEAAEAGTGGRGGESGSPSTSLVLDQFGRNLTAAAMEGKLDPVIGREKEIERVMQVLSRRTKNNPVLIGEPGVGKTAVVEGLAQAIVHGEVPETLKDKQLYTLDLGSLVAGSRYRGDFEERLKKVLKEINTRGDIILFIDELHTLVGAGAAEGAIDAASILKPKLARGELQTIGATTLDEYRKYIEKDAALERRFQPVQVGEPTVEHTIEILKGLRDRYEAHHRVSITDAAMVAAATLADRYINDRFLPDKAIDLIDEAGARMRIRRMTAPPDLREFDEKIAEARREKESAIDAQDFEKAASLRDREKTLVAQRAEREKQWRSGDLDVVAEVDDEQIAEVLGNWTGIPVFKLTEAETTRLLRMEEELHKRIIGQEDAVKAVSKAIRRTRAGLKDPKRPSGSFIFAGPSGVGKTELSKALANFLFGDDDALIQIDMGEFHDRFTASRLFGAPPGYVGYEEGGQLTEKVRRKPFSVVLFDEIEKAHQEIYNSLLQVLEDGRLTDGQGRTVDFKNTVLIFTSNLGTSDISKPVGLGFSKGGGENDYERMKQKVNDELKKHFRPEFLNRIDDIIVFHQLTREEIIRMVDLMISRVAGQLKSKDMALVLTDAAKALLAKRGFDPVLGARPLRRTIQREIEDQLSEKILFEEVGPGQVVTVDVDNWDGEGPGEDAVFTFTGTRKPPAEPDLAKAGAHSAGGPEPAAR
Chain of ClpC1 (P9WPC9 whole entry): as above

Compound	effect on ATPase activity (ClpC1)	MIC value, times lower than that of rifampicin or isoniazid (tuberculosis) [times]	effect on FITC-casein degradation (ClpC1P1P2)	affinity for ClpC1-NTD (ClpC1 NTD)
CC[C@@H](C)[C@@H](C(=O)N[C@@H]1C(=O)N(C)[C@@H]([C@@H](C)O)C(=O)N[C@@H](C(C)C)C(=O)N(C)[C@@H](CC(C)C)C(=O)N[C@@H](C(C)C)C(=O)N(C)[C@@H](C(C)C)C(=O)N(C)[C@@H](Cc2c[nH]c3cccc(OC)c23)C(=O)N[C@@H](C(C)C)C(=O)N[C@@H]([C@H](O)c2ccccc2)C(=O)N[C@@H](C(C)C)C(=O)O[C@@H]1C)N(C)C(=O)[C@@H](NC(=O)[C@H](C(C)C)N(C)C)C(C)C [ecumicin] (NMe2Val-V[NMeaIle]T[NMeT]V[NMeL]V[NMeV][NMeTrp(4-OMe)]V[Phe(3R-OH)]V; ester 3-C)	strong activator	50	inhibitor	
cyclomarin	very modest effects		very modest effects	nM affinity
